According to ChEMBL document CHEMBL1124398, “Full agonists of CCK8 containing a nonhydrolyzable sulfated tyrosine residue” (J Med Chem, 1989):
Starred links: 1 amine or outer side, 2 acyl side, 3 side chain; linkers in the order of their positions; H or OH if unused. Non-standard residues stand in square brackets, D forms with d. Residues, ends and D or L forms follow the SMILES beside them. Phe(4-CH2SO3H) = N[C@@H](Cc1ccc(CS(=O)(=O)O)cc1)C(=O)O; X1 = O=C([C@@H](Cc1ccc(CS(=O)(=O)O)cc1)N[*:1])[*:2]; Nle = CCCC[C@H](N)C(=O)O

How the values were obtained:
Cavia porcellus [1] = organism: Cavia porcellus; experiment: The compound was tested for the agonistic activity of amylase secretion by Guinea pig acini; format: functional
Cavia porcellus [2] = organism: Cavia porcellus; experiment: The compound was tested for the agonistic activity of contractile activities of Guinea pig ileum; format: functional

Structure (SMILES) | EC50 (Cavia porcellus [1]) | EC50 (Cavia porcellus [2])
CCCC[C@H](NC(=O)[C@H](Cc1c[nH]c2ccccc12)NC(=O)CNC(=O)[C@H](CCCC)NC(=O)[C@@H](Cc1ccc(OS(=O)(=O)O)cc1)NC(=O)OC(C)(C)C)C(=O)N[C@@H](CC(=O)O)C(=O)N[C@@H](Cc1ccccc1)C(N)=O | 4.5 nM | 28 nM
CSCC[C@H](NC(=O)[C@H](Cc1ccc(OS(=O)(=O)O)cc1)NC(=O)[C@@H](N)CC(=O)O)C(=O)NCC(=O)N[C@@H](Cc1c[nH]c2ccccc12)C(=O)N[C@@H](CCSC)C(=O)N[C@@H](CC(=O)O)C(=O)N[C@@H](Cc1ccccc1)C(N)=O [SINCALIDE] | 0.1 nM | –

The remaining lines, values ahead:

EC50 (Cavia porcellus [1]) | EC50 (Cavia porcellus [2]) | Structure (SMILES)
0.28 nM | – | CCCC[C@H](NC(=O)[C@H](Cc1ccc(OS(=O)(=O)O)cc1)NC(=O)OC(C)(C)C)C(=O)NCC(=O)N[C@@H](Cc1c[nH]c2ccccc12)C(=O)N[C@@H](CCCC)C(=O)N[C@@H](CC(=O)O)C(=O)N[C@@H](Cc1ccccc1)C(N)=O
1.6 nM | 17 nM | CCCC[C@H](NC(=O)[C@H](Cc1c[nH]c2ccccc12)NC(=O)CNC(=O)[C@H](CCCC)NC(=O)[C@@H](Cc1ccc(CS(=O)(=O)O)cc1)NC(C)=O)C(=O)N[C@@H](CC(=O)O)C(=O)N[C@@H](Cc1ccccc1)C(N)=O (Ac-[X1][Nle]GW[Nle]DF-NH2)
0.33 nM | 3.8 nM | CCCC[C@H](NC(=O)[C@H](Cc1ccc(CS(=O)(=O)O)cc1)NC(C)=O)C(=O)NCC(=O)N[C@@H](Cc1c[nH]c2ccccc12)C(=O)N[C@@H](CCCC)C(=O)N[C@@H](CC(=O)O)C(=O)N[C@@H](Cc1ccccc1)C(N)=O (Ac-[Phe(4-CH2SO3H)][Nle]GW[Nle]DF-NH2)
